# Source: publication PMC6079014, “Calcium is an essential cofactor for metal efflux by the ferroportin transporter family” (Nature Communications, 2018)
# pEC50: −log10 of the molar value.
# Columns and labels:
# [1] = molecular target: BbFpn Q84E (Bdellovibrio bacteriovorus, UniProt Q6MLJ0, Q84E); experiment: Isothermal titration calorimetry, Q84E BbFpn; assay type: binding, Bdellovibrio bacteriovorous
# [2] = molecular target: T1, human Fpn Q99A (Homo sapiens, UniProt Q9NP59, Q99A); experiment: 55Fe efflux assay in Xenopus oocytes expressing Q99A mutant human Fpn; assay type: cell-based; details: fit by Eq. (2), ± SEM, read-out: K0.5Ca, half-maximal extracellular Ca2+ concentration for stimulation of 55Fe efflux
# T1 construct: expressed in transfected cells; host or cells: Xenopus laevis oocytes injected with mutant Fpn RNA (pOX(+) vector)
# T1 sequence (Q9NP59 1-571 Q99A): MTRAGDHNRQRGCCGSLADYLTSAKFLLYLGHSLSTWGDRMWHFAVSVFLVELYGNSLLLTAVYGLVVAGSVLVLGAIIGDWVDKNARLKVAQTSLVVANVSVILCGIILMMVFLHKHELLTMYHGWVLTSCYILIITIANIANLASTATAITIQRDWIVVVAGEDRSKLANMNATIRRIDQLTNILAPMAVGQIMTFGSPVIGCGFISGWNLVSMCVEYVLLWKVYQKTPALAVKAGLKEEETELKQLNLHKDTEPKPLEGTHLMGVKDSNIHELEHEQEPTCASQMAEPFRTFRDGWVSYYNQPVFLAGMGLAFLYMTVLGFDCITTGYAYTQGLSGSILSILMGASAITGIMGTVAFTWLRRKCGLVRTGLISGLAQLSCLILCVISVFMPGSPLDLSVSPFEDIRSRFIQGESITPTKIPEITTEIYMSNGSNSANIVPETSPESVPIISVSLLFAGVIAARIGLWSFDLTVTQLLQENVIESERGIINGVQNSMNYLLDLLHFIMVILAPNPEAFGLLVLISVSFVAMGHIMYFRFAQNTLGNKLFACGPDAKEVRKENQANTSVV
# Description: We performed laparotomy and ovariectomy on adult female Xenopus laevis frogs (Nasco, Fort Atkinson, WI) under 2-aminoethylbenzoate methanesulfonate anesthesia (0.2%, by immersion, to effect) following a protocol approved by the University of Cincinnati Institutional Animal Care and Use Committee. Ovarian tissue was isolated and treated for 3 h with […] collagenase A (Roche Diagnostics Corp., Indianapolis, IN) in calcium-free-modified Barths’ medium (MBM) of composition 88 mM NaCl, 1 mM KCl, 2.4 mM NaHCO3, 1.57 mM MgSO4, 0.66 mM NaNO3, 10 mM 4-(2-hydroxyethyl)-1-piperazineethanesulfonic acid (HEPES), buffered to pH 7.5 by using 2-amino-2-hydroxymethyl-propane-1,3-diol (Tris base). […]
# We measured metal efflux from oocytes expressing Fpn by using a radiotracer assay. […]
# To initiate the efflux assay, we placed oocytes in standard efflux medium of composition 100 mM NaCl, 1 mM KCl, 2 mM CaCl2, 1 mM MgCl2, 0.5 mM bathophenanthroline disulfonic acid (BPS), 1 mM nitrilotriacetic acid (NTA) trisodium salt, 50 μg/ml apotransferrin (ApoTf) (R&D Systems Inc., Minneapolis, MN), buffered with 0–5 mM MES, and 0–5 mM N′,N′-diethylpiperazine to obtain pH 7.5, with the following exceptions. […] The corresponding oocytes were rinsed twice in ice-cold medium (without BPS), solubilized with 5% (w/v) sodium dodecyl sulfate, and counted (Nt). […]
# BbFpn Q84E, sequence (Q6MLJ0 whole entry Q84E): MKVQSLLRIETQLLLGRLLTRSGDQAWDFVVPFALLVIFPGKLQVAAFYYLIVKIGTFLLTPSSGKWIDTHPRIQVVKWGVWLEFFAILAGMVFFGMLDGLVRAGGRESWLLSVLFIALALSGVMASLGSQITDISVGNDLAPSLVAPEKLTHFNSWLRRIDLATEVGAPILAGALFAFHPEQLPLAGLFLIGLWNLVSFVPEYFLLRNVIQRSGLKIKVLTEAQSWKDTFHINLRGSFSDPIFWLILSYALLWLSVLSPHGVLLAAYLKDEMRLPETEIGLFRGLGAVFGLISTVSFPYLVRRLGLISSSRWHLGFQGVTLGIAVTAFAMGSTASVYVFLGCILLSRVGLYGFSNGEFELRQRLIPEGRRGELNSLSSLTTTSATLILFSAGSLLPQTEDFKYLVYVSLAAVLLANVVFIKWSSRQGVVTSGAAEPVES
smiles,measurement,setting,value
"[Ca+2] [Ca^2+, calcium]",Binding to Q84E BbFpn by ITC (in words),[1],no Ca^2+ or Sr^2+ binding
same,pEC50,[2],2.62
